# pEC50, pIC50: −log10 of the molar value. Like-named read-outs stand apart in the source and are kept apart here.
# How the values were obtained:
# Format in all cases: cell-based, human
# [1] = test system: MDA Breast Cancer Cell Line; assay: MTT cytotoxicity assay, transfected MDA cells plus chemotherapeutic drug; details: for pEC50 / fold change of EC50, Prohibitin vs Control / pIC50: MDA cells; for sensitivity to drug of prohibitin siRNA treated cells compared to mock-treated cells / sensitivity to drug of prohibitin siRNA treated cells compared to controls / sensitivity to drug of prohibitin siRNA treated cells compared to mock controls: MDA; for sensitivity to drug of prohibitin siRNA treated cells compared to mock-treated cells: FIG. 9A-9H; for pIC50: Homo sapiens
# Procedure: (§1) For a typical siRNA transfection, 1 nmole of the annealed siRNA duplex was mixed with 1.4 ml of Opti-MEM reagent (Invitrogen). In another tube, […] of Oligofectamine reagent (Invitrogen, Carlsbad, Calif.) was mixed with […] of Opti-MEM. The two solutions were combined and mixed gently by inversion and incubated for 20 min. at RT. The resulting solution was added to the cultured cells drop by drop in a 10 cm dish (cells are approximately 40-50% confluent). The next day the transfected cells were trypsinized and seeded in 6 or 96-well plates and further incubated for the indicated amount of time (assay dependent) before further analysis.
# (§2) RNA-transfected cells were seeded in triplicate into 96-well plates at 5×10^3 cells/well 48 hrs post-transfection. The cells were incubated for an additional 16 to 24 hrs before they were exposed to increasing concentrations of cytotoxic drugs. […] Appropriate dilutions were made in the respective media for each cell line. Following addition of drugs, incubation was continued for an additional 72 hrs. […] of MTT dye (5 mg/ml) were added into each well and the plate was further incubated at 37° C. for 4 hrs. The dye was solubilized with 10% Triton X-100, 0.01 N HCl and further incubated at 37° C. in the dark for 30 min. Cell viability was determined by measure of absorption at 570 nm in a Wallac multiwell plate reader (PerkinElmer, Inc., Boston, Mass.). The averages of triplicate wells were plotted using the Prism software (GraphPad Software, Inc., San Diego, Calif.).
# [2] = test system: MCF-7 Breast Cancer Cell Line; assay: MTT cytotoxicity assay, transfected MCF-7 cells plus chemotherapeutic drug; details: for fold change of EC50, Prohibitin vs Control: direction IS/IR in same cell (E42); for sensitivity to drug of prohibitin siRNA treated cells: MCF-7, FIGS. 15A-15H
# Procedure: as §1
# as §2, with “Cell survival was determined using the MTT cytotoxicity assay (see, e.g., Tokuyama et al. (2005) Anticancer Res. 25(1A): 17-22). RNA-transfected” for “RNA-transfected”, “drugs. Doxorubicin (adriamycin), cisplatinum, taxol, vinblastin, vincristin, and mitoxantrone were all purchased from Sigma Corp. (St. Louis, Mo.).” for “drugs.”
# Cell survival was determined as described in Example 3 above.
# [3] = test system: SKOV3 Ovarian Cancer Cell Line; assay: MTT cytotoxicity assay, transfected SKOV3 cells plus chemotherapeutic drug; details: for pEC50 / fold change of EC50, Prohibitin vs Control: SKOV3 cells; for fold change of EC50, Prohibitin vs Control: direction IS/IR in same cell (E54); for pIC50: Homo sapiens, SK-OV-3, SKOV3 cells
# Procedure: as §1, §2
# Each table summarizes the results of an individual experiment performed in triplicate.
# [4] = mock-transfected control, Table 3 experiment, read-out: EC50, Control
# [5] = mock-transfected control, Table 4 experiment, read-out: EC50, Control
# [6] = mock-transfected control, Table 5 experiment, read-out: EC50, Control
# [7] = mock-transfected control, Table 6 experiment, read-out: EC50, Control
# [8] = mock-transfected control, Table 7 experiment, read-out: EC50, Control
# [9] = mock-transfected control, Table 8 experiment, read-out: EC50, Control
# [10] = prohibitin (siRNA) transfected, Table 3 experiment, read-out: EC50, Prohibitin
# [11] = prohibitin (siRNA) transfected, Table 4 experiment, read-out: EC50, Prohibitin
# [12] = prohibitin (siRNA) transfected, Table 5 experiment, read-out: EC50, Prohibitin
# [13] = prohibitin (siRNA) transfected, Table 6 experiment, read-out: EC50, Prohibitin
# [14] = prohibitin (siRNA) transfected, Table 7 experiment, read-out: EC50, Prohibitin
# [15] = prohibitin (siRNA) transfected, Table 8 experiment, read-out: EC50, Prohibitin
# [16] = Table 3 experiment, direction IS/IR in same cell (E6)
# [17] = Table 4 experiment, direction IS/IR in same cell (E12)
# [18] = Table 6 experiment, direction IS/IR in same cell (E24)
# [19] = Table 7 experiment, direction IS/IR in same cell (E30)
# [20] = Table 8 experiment, direction IS/IR in same cell (E36)
# [21] = MCF-7 cells, prohibitin (siRNA) transfected, Table 9, read-out: EC50, Prohibitin
# [22] = mock-transfected control, Table 10 experiment, read-out: EC50, Control
# [23] = mock-transfected control, Table 11 experiment, read-out: EC50, Control
# [24] = prohibitin (siRNA) transfected, Table 10 experiment, read-out: EC50, Prohibitin
# [25] = prohibitin (siRNA) transfected, Table 11 experiment, read-out: EC50, Prohibitin
# [26] = Homo sapiens, MCF7, MCF-7 cells, prohibitin (siRNA) transfected, Table 9, read-out: EC50, Prohibitin
SMILES,"pEC50 [1, 10]","pEC50 [1, 11]","pEC50 [1, 12]","pEC50 [1, 15]","fold change of EC50, Prohibitin vs Control [1, 16]","fold change of EC50, Prohibitin vs Control [1, 17]",sensitivity to drug of prohibitin siRNA treated cells compared to mock-treated cells [1],sensitivity to drug of prohibitin siRNA treated cells compared to controls ([1]; FIGS. 10A-10H),sensitivity to drug of prohibitin siRNA treated cells compared to mock controls ([1]; FIGS. 13A-13H),"pEC50 [2, 21]","fold change of EC50, Prohibitin vs Control ([2]; MCF-7 cells, Table 9)","pEC50 [3, 24]","pEC50 [3, 25]",sensitivity to drug of prohibitin siRNA treated cells [2],"pIC50 [1, 4]","pIC50 [1, 5]","pIC50 [1, 8]","pIC50 [1, 9]","pIC50 [3, 22]","pIC50 [3, 23]",also measured
N.N.[Cl][Pt][Cl] [Cisplatinum],3.72,3.57,3.91,4.24,1.2 x,1.4 x,increased sensitivity,more sensitive,increased sensitivity,3.82,1.3 x,4.58,4.16,,,,,,,,"pEC50 [1, 4]: 3.59; pEC50 [1, 5]: 3.43; pEC50 [1, 6]: 4.03; pEC50 [1, 7]: 3.79; pEC50 [1, 8]: 4.11; pEC50 [1, 9]: 4.53; pEC50 [1, 13]: 3.72; pEC50 [1, 14]: 4.26; fold change of EC50, Prohibitin vs Control ([1]; Table 5 experiment, direction IS/IR in same cell (E18)): 1.3 x; fold change of EC50, Prohibitin vs Control [1, 18]: 1.1 x; fold change of EC50, Prohibitin vs Control [1, 19]: 1.4 x; fold change of EC50, Prohibitin vs Control [1, 20]: 1.9 x; pEC50 ([2]; MCF-7 cells, mock-transfected control, Table 9, read-out: EC50, Control): 3.93; change in sensitivity to the drug, Prohibitin vs Control ([2]; MCF-7 cells, Table 9): IR (IR: “increased in resistance” to the drug); pEC50 [3, 22]: 4.65; pEC50 [3, 23]: 4.30; fold change of EC50, Prohibitin vs Control ([3]; Table 11 experiment): 1.4 x"
CC(=O)O[C@@]12CO[C@@H]1C[C@H](O)[C@@]1(C)C(=O)[C@H](O)C3=C(C)[C@@H](OC(=O)[C@H](O)[C@@H](NC(=O)OC(C)(C)C)c4ccccc4)C[C@@](O)([C@@H](OC(=O)c4ccccc4)[C@H]21)C3(C)C [Docetaxel],,,,,,,,,,8.27,13.8 x,,,more sensitive,,,,,,,
COc1cccc2c1C(=O)c1c(O)c3c(c(O)c1C2=O)C[C@@](O)(C(=O)CO)C[C@@H]3O[C@H]1C[C@H](N)[C@H](O)[C@H](C)O1 [Doxorubicin],8.76,8.90,9.00,9.86,,,,,increased sensitivity,7.52,,7.89,10.91,more sensitive,8.84,9.06,9.64,9.75,7.67,10.58,"pIC50 [1, 6]: 8.76; pIC50 [1, 7]: 8.65; pEC50 [1, 13]: 8.77; sensitivity to drug of prohibitin siRNA treated cells compared to controls ([1]; FIG. 11A): increased sensitivity; sensitivity to drug of prohibitin siRNA treated cells compared to mock controls ([1]; FIGS. 14A-14H): more sensitive"
COc1cc([C@@H]2c3cc4c(cc3[C@@H](O[C@@H]3O[C@@H]5CO[C@@H](C)O[C@H]5[C@H](O)[C@H]3O)[C@H]3COC(=O)[C@H]23)OCO4)cc(OC)c1O [Etoposide],,,,,,1.3 x,,more sensitive,,,2.2 x,6.21,6.62,more sensitive,4.10,4.08,5.02,5.03,6.21,6.83,"pIC50 [1, 10]: 4.12; pIC50 [1, 11]: 4.20; pIC50 [1, 14]: 5.00; pIC50 [1, 15]: 5.02; pEC50 [2, 26]: 5.14"
N[C@@H](Cc1ccc(N(CCCl)CCCl)cc1)C(=O)O [Melphalan],4.41,4.39,,4.72,1.5 x,1.1 x,increased sensitivity,,,,1.4 x,5.34,5.34,more sensitive,4.22,4.44,4.60,4.45,5.24,5.23,"pEC50 [1, 14]: 4.62; fold change of EC50, Prohibitin vs Control [1, 20]: 1.8 x; sensitivity to drug of prohibitin siRNA treated cells compared to mock controls ([1]; FIGS. 14A-14H): more sensitive; pEC50 ([2]; Homo sapiens, MCF7, MCF-7 cells, mock-transfected control, Table 9, read-out: EC50, Control): 4.83; pEC50 [2, 26]: 4.98; fold change of EC50, Prohibitin vs Control ([3]; Table 11 experiment): 1.3 x"
S=P(N1CC1)(N1CC1)N1CC1 [Thiotepa],,,,,1.3 x,1.7 x,increased sensitivity,more sensitive,increased the sensitivity,,,4.60,4.86,,3.22,3.29,3.84,3.80,4.46,4.78,"pIC50 [1, 7]: 3.20; pIC50 [1, 10]: 3.32; pIC50 [1, 11]: 3.54; pIC50 [1, 13]: 3.28; pIC50 [1, 14]: 4.01; pIC50 [1, 15]: 3.78; fold change of EC50, Prohibitin vs Control [1, 18]: 1.2 x; fold change of EC50, Prohibitin vs Control [1, 19]: 1.5 x; sensitivity to drug of prohibitin siRNA treated cells compared to mock controls ([1]; FIGS. 12A-12D): increased sensitivity; fold change of EC50, Prohibitin vs Control ([3]; Table 11 experiment): 1.2 x"
CC[C@]1(O)C[C@@H]2CN(CCc3c([nH]c4ccccc34)[C@@](C(=O)OC)(c3cc4c(cc3OC)N(C)[C@H]3[C@@](O)(C(=O)OC)[C@H](OC(C)=O)[C@]5(CC)C=CCN6CC[C@]43[C@@H]65)C2)C1 [Vinblastin],,,5.59,,,,,,,,,,,,,,,,,,"pEC50 [1, 6]: 6.81"

# — patent US20070122830A1, “Prohibitin-directed diagnostics and therapeutics for cancer and chemotherapeutic drug resistance” (Aurelium BioPharma Inc., priority 2005, published 2007)
